Data reported in patent publication US20100015727A1, “METHOD FOR DETERMINING TRANSPORT ACTIVITY OF A TRANSPORT PROTEIN” (BOEHRINGER INGELHEIM INTERNATIONAL GMBH, priority 2006, published 2010).

Target: T1, MRP4 (Homo sapiens, UniProt O15439)
T1 construct: infected with a baculovirus construct containing the full-length cDNA encoding MRP4; made in house; host or cells: Hi5 or Sf9 insect cells (baculovirus)
T1 sequence (O15439 1-1325): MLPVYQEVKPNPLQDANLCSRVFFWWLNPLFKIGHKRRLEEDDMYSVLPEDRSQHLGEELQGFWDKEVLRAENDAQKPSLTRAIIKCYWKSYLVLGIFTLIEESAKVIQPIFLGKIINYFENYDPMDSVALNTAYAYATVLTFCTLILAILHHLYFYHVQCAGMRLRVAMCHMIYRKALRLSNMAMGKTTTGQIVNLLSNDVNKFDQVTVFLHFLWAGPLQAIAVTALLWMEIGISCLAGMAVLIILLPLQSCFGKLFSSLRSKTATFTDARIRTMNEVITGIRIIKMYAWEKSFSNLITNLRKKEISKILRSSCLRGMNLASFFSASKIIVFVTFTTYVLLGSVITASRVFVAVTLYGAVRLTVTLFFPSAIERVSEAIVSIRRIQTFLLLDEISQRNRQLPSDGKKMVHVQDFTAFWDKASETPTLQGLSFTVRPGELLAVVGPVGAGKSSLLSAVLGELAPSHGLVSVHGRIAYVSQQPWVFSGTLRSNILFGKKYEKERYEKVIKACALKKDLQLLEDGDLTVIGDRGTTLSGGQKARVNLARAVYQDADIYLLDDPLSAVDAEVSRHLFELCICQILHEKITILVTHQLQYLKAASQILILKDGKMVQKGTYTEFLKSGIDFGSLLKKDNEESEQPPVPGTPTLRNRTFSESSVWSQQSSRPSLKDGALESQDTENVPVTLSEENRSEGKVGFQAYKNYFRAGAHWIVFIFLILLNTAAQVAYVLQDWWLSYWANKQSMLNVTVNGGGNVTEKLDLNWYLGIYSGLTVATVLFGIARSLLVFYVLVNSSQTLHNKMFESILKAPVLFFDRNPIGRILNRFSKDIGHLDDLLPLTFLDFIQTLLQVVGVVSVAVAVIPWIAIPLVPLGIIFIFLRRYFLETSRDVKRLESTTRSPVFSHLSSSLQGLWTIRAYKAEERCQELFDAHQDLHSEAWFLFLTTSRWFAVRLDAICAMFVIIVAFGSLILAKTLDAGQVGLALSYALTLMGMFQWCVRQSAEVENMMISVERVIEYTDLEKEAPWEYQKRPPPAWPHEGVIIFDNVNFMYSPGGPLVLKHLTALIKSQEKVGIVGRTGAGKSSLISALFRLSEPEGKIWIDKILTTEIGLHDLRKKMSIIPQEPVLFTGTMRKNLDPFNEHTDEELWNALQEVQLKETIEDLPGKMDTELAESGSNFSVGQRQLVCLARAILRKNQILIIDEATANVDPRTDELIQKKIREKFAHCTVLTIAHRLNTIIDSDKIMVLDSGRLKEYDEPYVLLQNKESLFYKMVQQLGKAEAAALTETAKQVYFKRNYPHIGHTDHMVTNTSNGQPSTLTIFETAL
Assay: SPA assay of MRP4 transport activity (3H-folic acid uptake into membrane vesicles)
Type: biochemical
Settings: inhibition of MRP4 transport of 3H-folic acid into membrane vesicles from baculovirus-infected insect cells; Protein A SPA beads, anti-MRP4 rabbit antiserum
Method: • 1) Membrane vesicles from insect cells (Hi5 or Sf9) infected with a baculovirus construct containing the full-length cDNA encoding MRP4 are prepared as described by van Aubel et al. (van Aubel et al., 2002) with some modifications: Hi5 cells are cultured in suspension to a cell density of 1×10^6 cells/ml in Insect-Xpress serum free insect cell medium and infected with baculovirus construct containing the full-length cDNA encoding MRP4. Three days after infection, cells are collected by centrifugation at 3000 rpm for 10 min. […] Protein concentration of the membrane preparation is determined using standard methods, e.g. the BCA protein assay (Pierce, product number 23250). • 2) Determination of transport activity of MRP4: Membrane vesicles prepared in 1) are diluted in Tris/sucrose buffer to a concentration of 3.3 μg protein/μl. […] Luminescence signals are measured with the LEADSeeker or TopCount system after 30 min, 1 h, 2 h, 4 h, or up to 24 h. • 3) Calculation of inhibitory effect of a test compound: The relative transport activities of MRP4 determined in the presence of a test compound is calculated as percentage of luminescence determined in the presence of the test compound compared to luminescence determined in the absence of the test compound.

## OCCN(CCO)c1nc(N2CCCCC2)c2nc(N(CCO)CCO)nc(N3CCCCC3)c2n1 [Dipyridamole]
  IC50: 35 µM
